Experimental data reported in patent US9540337B2, “Gamma-glutamyl transpeptidase inhibitors and methods of use” (The Board of Regents of the University of Oklahoma, priority 2012, dated 2017).
Where “and” joins values, the source holds several entries; their conditions need not be identical. Identical values can stand only once. Like-named read-outs stand apart in the source and are kept apart here.

Assays:
Human GGT1 (hGGT) [1] = biological target: T1, Human GGT1 (hGGT) (Homo sapiens, UniProt P19440); assay: L-GpNA Transpeptidation Assay with GlyGly as acceptor; assay type: biochemical; design: lacking the transmembrane domain; made in house; host or cells: Pichia pastoris; settings: for fold change in L-GpNA Kii (transpeptidation) relative to Compound 16: weaker than Compound 16
T1 sequence (P19440 381-569 limits assumed): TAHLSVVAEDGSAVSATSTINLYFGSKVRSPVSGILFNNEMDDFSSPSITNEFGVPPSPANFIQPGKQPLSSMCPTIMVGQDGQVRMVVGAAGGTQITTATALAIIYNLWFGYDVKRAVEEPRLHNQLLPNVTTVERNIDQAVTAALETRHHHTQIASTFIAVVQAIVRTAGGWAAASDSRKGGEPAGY
T1 sequence (P19440 27-380 limits assumed): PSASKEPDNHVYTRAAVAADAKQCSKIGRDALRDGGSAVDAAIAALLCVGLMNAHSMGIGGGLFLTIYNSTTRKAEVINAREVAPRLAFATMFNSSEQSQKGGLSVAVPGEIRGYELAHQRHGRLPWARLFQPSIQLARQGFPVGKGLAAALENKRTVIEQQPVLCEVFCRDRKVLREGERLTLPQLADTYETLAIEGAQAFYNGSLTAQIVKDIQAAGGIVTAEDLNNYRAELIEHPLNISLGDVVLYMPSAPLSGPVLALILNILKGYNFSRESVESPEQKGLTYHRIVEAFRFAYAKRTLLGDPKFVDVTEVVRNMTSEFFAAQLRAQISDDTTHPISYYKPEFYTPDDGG
Procedure: Transpeptidation Reaction: The same assay buffer was used for both the hydrolysis reaction and the transpeptidation reaction. The transpeptidation reaction included 40 mM glycylglycine (glygly, Sigma, St. Louis, Mo.) as the acceptor. […] The concentration of L-GpNA was 3 mM for experiments in which the concentration of glygly was varied. To initiate the transpeptidation reaction, 4 mU GGT were added.
1. […] 3 and 4. […] 5 (25).
L-GpNA Transpeptidation Assay: The assay has been described previously. […] The concentration of L-GpNA was 3 mM for experiments in which the concentration of GlyGly was varied. To initiate the transpeptidation reaction, 4 mU GGT were added.

Human GGT1 (hGGT) [2] = biological target: T1, Human GGT1 (hGGT); assay: D-GpNA Hydrolysis Assay (release of pNA, 405 nm, pH 7.4); settings: for fold less effective than OU749 in inhibiting hydrolysis of D-GpNA: relative to OU749; for Vo (maximum velocity at zero activator) / V∞ (maximum rate at infinite activator): Hydrolysis D-GpNA, Table 3; for maximal fold induction: human
Procedure: (§1) Enzyme Isolation: Human GGT1 (P19440), lacking the transmembrane domain, was expressed in Pichia pastoris and isolated as previously described (14). […] One unit of GGT activity was defined as the amount of enzyme that released 1 μmol of paranitroaniline/min at 37° C. at pH 7.4 in the transpeptidation reaction.
The reaction was initiated with the addition of 19 mU GGT. The reaction was incubated at 37° C. and monitored continuously at 405 nm by a Bio-Rad model 680 microplate reader with Microplate Manager 5.2 software (Bio-Rad, Hercules, Calif.).
Data Analysis: Samples in each experiment were run in triplicate. Each inhibitor was evaluated in two or more independent experiments. Double reciprocal plots were generated to assess data quality and determine the correct rate equation for data fitting. Data were fitted using the proper rate equation and the Marquardt-Levenberg algorithm supplied with the Enzfitter program (BIOSOFT, Cambridge, UK). Kinetic parameters with standard errors were estimated using a simple weighting method.
Data adhering to Michaelis-Menten Kinetics were fitted to eq. 1. Data for initial rate patterns with D-, L-GpNA varied at different fixed levels of glygly were fitted to eq. […] Data for competitive and uncompetitive inhibition were fitted to eqs. 3 and 4. Data for the dependence of Vmax and Vmax/KD-GpNA on the concentration of activator were fitted using eq. 5 (25).
In eqs 1-6, Vmax are the initial and maximum rates, respectively, Ka and Kb are Michaelis constants for substrates A and B, respectively, and Kis and Kii are slope and intercept inhibition constants. In eq. 5, a is the value of Vmax or Vmax/KD-GpNA at zero activator/inhibitor, KID is the activation or inhibition constant, and KIN is a constant that causes the parameter to go to a constant value at infinite concentrations of X, the activator/inhibitor. The product a(KID/KIN) is the value of Vmax or Vmax/KD-GpNA at infinite activator/inhibitor (25). Data for noncompetitive inhibition were fitted to eq. 6. Data for the dependence of Vmax and Vmax/KD-GpNA on the concentration of activator were fitted using […].
as §1, with “hGGT” for “Human GGT1”, “described.” for “described (14).”, “reaction with L-GpNA.” for “reaction.”
D-GpNA Hydrolysis Assay: The assay was carried out as previously described. […] The reaction was initiated with the addition of 19 mU GGT as determined by the L-GpNA transpeptidation assay. The reaction was incubated at 37° C. and monitored continuously at 405 nm.

[3] = GlyGly varied, 3 mM L-GpNA, Table 2, read-out: Transpeptidation GlyGly Kis
[4] = L-GpNA varied, 40 mM GlyGly, Table 2, read-out: Transpeptidation L-GpNA Kii
[5] = pH 7.4, read-out: Fold Activation
[6] = Table 3, read-out: Transpeptidation GlyGly Kis
[7] = Table 3, read-out: Transpeptidation L-GpNA Kii
[8] = read-out: activation of the Vmax for hydrolysis (V∞/Vo)

| SMILES | fold change in L-GpNA Kii (transpeptidation) relative to Compound 16 (Human GGT1 (hGGT) [1]) | Vo (maximum velocity at zero activator) (Human GGT1 (hGGT) [2]) | V∞ (maximum rate at infinite activator) (Human GGT1 (hGGT) [2]) | maximal fold induction (Human GGT1 (hGGT) [2]; [5]) | Ki (Human GGT1 (hGGT) [1]; [6]) | Ki (Human GGT1 (hGGT) [1]; [7]) | maximal fold induction (Human GGT1 (hGGT) [2]; [8]) | also measured |
| --- | --- | --- | --- | --- | --- | --- | --- | --- |
| COc1ccc(Cc2nnc(NS(=O)(=O)c3ccc(NO)cc3)s2)cc1 [Compound 5] |  |  |  |  |  |  |  | Ki (Human GGT1 (hGGT) [1]; [3]): 25.7 ± 1.3 µM; Ki (Human GGT1 (hGGT) [1]; [4]): 64.4 ± 5.1 µM; Ki (Human GGT1 (hGGT) [2]): 149 ± 13.6 µM; fold less effective than OU749 in inhibiting hydrolysis of D-GpNA (Human GGT1 (hGGT) [2]): 2-5 fold |
| COc1ccc(Cc2nnc(NS(=O)(=O)c3ccc(C(F)(F)F)cc3)s2)cc1 [Compound 12] |  |  |  |  |  |  |  | Ki (Human GGT1 (hGGT) [1]; [3]): 46.3 ± 3.5 µM; Ki (Human GGT1 (hGGT) [1]; [4]): 117 ± 7.4 µM |
| O=[N+]([O-])c1ccc(Cc2nnc(NS(=O)(=O)c3ccc([N+](=O)[O-])cc3)s2)cc1 [Compound 14] |  | 1.27 ± 0.01 mM/min/nM | 5.08 ± 0.41 mM/min/nM | 4 ± 0.11 | 81.2 ± 8.8 µM | 132 ± 5.5 µM | 3 to 6 |  |
| O=[N+]([O-])c1ccc(S(=O)(=O)Nc2nnc(Cc3cccc(Cl)c3)s2)cc1 [Compound 15] | 2 fold | 1.30 ± 0.01 mM/min/nM | 5.86 ± 0.23 mM/min/nM | 4.51 ± 0.05 | 43.8 ± 7.7 µM | 119 ± 7.1 µM | 3 to 6 |  |
| Cc1cccc(Cc2nnc(NS(=O)(=O)c3ccc([N+](=O)[O-])cc3)s2)c1 [Compound 18] | 2 fold | 1.15 ± 0.01 mM/min/nM | 5.08 ± 0.20 mM/min/nM | 4.42 ± 0.64 | 34.3 ± 0.9 µM | 121 ± 8.8 µM | 3 to 6 |  |
| O=[N+]([O-])c1ccc(S(=O)(=O)Nc2nnc(Cc3ccc(F)cc3)s2)cc1 [Compound 19] |  | 1.53 ± 0.09 mM/min/nM | 5.39 ± 0.28 mM/min/nM | 3.52 ± 0.6 | 31.8 ± 0.7 µM |  | 3 to 6 |  |
| NS(=O)(=O)c1ccccc1.[Na] [SBS, Sodium benzenesulfonamide, reference compound] |  |  |  |  |  |  |  | Ki (Human GGT1 (hGGT) [1]; SBS, read-out: Kii, transpeptidation, vs L-GpNA): 28800 ± 1600 µM; Ki (Human GGT1 (hGGT) [1]; SBS, read-out: Kis, transpeptidation, vs GlyGly): 2280 ± 70 µM; fold less effective than OU749 in inhibiting hydrolysis of D-GpNA (Human GGT1 (hGGT) [2]): more than 2.000 fold |
| N[C@H](C(=O)O)[C@@H]1CC(Cl)=NO1 [acivicin, reference compound] |  |  |  |  |  |  |  | kon (Human GGT1 (hGGT) [2]; pH 7.4, read-out: kon (second order rate constant)): 2.85 M⁻¹ s⁻¹; kon (Human GGT1 (hGGT) [2]; pH 7.4, read-out: kon corrected for the presence of D-GpNA): 8 M⁻¹ s⁻¹ |

Continued, in another order:

| fold change in L-GpNA Kii (transpeptidation) relative to Compound 16 (Human GGT1 (hGGT) [1]) | Vo (maximum velocity at zero activator) (Human GGT1 (hGGT) [2]) | V∞ (maximum rate at infinite activator) (Human GGT1 (hGGT) [2]) | maximal fold induction (Human GGT1 (hGGT) [2]; [5]) | Ki (Human GGT1 (hGGT) [1]; [6]) | Ki (Human GGT1 (hGGT) [1]; [7]) | maximal fold induction (Human GGT1 (hGGT) [2]; [8]) | SMILES | also measured |
| --- | --- | --- | --- | --- | --- | --- | --- | --- |
| less than 2 fold | 1.59 ± 0.14 mM/min/nM | 8.63 ± 1.21 mM/min/nM | 5.43 ± 2.04 |  |  |  | COc1ccc(Cc2nnc(NS(=O)(=O)c3ccc([N+](=O)[O-])cc3)s2)cc1 [Compound 11] | Ki (Human GGT1 (hGGT) [1]; [3]): 96 µM and 95.7 µM; Ki (Human GGT1 (hGGT) [1]; [4]): 93 µM and 92.8 µM; difference in affinity for D-γ-glutamyl and L-γ-glutamyl enzyme intermediates (Human GGT1 (hGGT) [1]; human): 2.5 fold; fold change in GlyGly Kis (transpeptidation) relative to Compound 16 (Human GGT1 (hGGT) [1]; increase relative to Compound 16): more than 2 fold |
| ~2 fold | 1.59 ± 0.06 mM/min/nM | 9.09 ± 0.55 mM/min/nM | 5.72 ± 0.32 | 59.6 ± 3.7 µM | 111 ± 5.5 µM | 3 to 6 | O=[N+]([O-])c1ccc(S(=O)(=O)Nc2nnc(Cc3ccccc3)s2)cc1 [Compound 13] |  |
|  | 1.71 ± 0.09 mM/min/nM | 7.70 ± 0.46 mM/min/nM | 4.5 ± 0.63 | 44.4 ± 3.4 µM | 61.9 µM | 3 to 6 | O=[N+]([O-])c1ccc(S(=O)(=O)Nc2nnc(Cc3ccc(Cl)cc3)s2)cc1 [Compound 16] | Ki (Human GGT1 (hGGT) [1]; Table 7, read-out: L-GpNA with GlyGly Kii): 62 ± 2 µM |
|  | 2.62 ± 0.79 mM/min/nM | 11.25 ± 4.27 mM/min/nM | 4.29 ± 2.2 | 56.9 ± 8.3 µM | 113 ± 5.2 µM | 3 to 6 | Cc1ccc(Cc2nnc(NS(=O)(=O)c3ccc([N+](=O)[O-])cc3)s2)cc1 [Compound 17] |  |
